Laboratory results published in ChEMBL document CHEMBL1151411, “Plant Anticancer Agents. XIII. Constituents of Austrocedrus chilensis” (1983).
Values after ≈ are worked out from the molar mass of the structure shown.

Test system: KB
Experiment: Cytotoxicity against human KB cells
Type: functional
Conditions: read-out: ED50 (the source's name)

`CC(C)c1cc2c(cc1O)[C@@]1(CO)CCCC(C)(C)[C@@H]1CC2` [PISIFEROL] showed an EC50 of 100 µg/mL (≈ 331 µM).
With `CC(C)C1=CC2(O)CC[C@H]3C(C)(C)CCC[C@]3(CO)C2=CC1=O` (some centres not stated) the EC50 was 16 µg/mL (≈ 50.2 µM).
